# According to patent US9782379B2, “Use of protectin DX for the stimulation of muscular IL-6 secretion” (Universite Laval, priority 2013, dated 2017):
# Tests used:
# lean C57BL/6J mice = assay: paired 6 h lipid infusion and 4 mU/kg hyperinsulinemic-euglycemic clamp; format: in vivo
# Method: 14-week old male C57BL/6J mice from Jackson Labs were used for the first paired lipid infusion hyperinsulinemic-euglycemic clamp study. These mice were placed on a standard laboratory chow diet with free access to food and water and kept in a 12 h light 12 h dark cycle at the Laval University hospital research centre animal facility. Mice were randomly assigned to saline, lipid or lipid+PDX groups. Five days prior to the experiment, mice were anesthetized and PE-10 catheters (Harvard Apparatus, QC, Canada) were inserted into the left common carotid artery and the right jugular vein for blood sampling and infusions respectively. Mice were fasted for 5 h leading up to the protocol. Immediately prior to the start of the lipid infusion, PDX (1 ug) or an equal volume of vehicle was administered via the jugular catheter to each group. Mice were then infused for 6 h with saline (5ml·kg^−1·h^−1) or lipid (20% intralipid emulsion (Baxter, ON, Canada) 5ml·kg^−1·h^−1 with 20 IU·ml^−1 heparin (LEO pharma, ON, Canada)). 2.5h into the infusion PDX (1 ug) or vehicle was again administered to the appropriate groups and the HIE clamp was initiated as previously described ^8,27. The clamp protocol consisted of a 90 min tracer equilibration period followed by a 120 min experimental period. A 5-μCi bolus of [3-^3H]glucose was given at the start of the tracer equilibration period followed by a 0.05-μCi/min infusion for 90 min. Blood samples were drawn for the assessment of glycemia, insulin and glucose turnover levels. Following the 90 min tracer equilibration period the clamp began with a primed-continuous infusion of human insulin (16 mU/kg bolus followed by 4 mU·kg^−1·min^−1, Humulin R; Eli Lilly, Indianapolis, Ind.). The [3-^3H]glucose infusion was increased to 0.2 μCi/min for the remainder of the experiment. Euglycemia (6.0-7.0 mM) was maintained during clamps by infusing 20% dextrose as necessary. Blood samples were taken continuously to determine glucose specific activity as well as insulin concentrations. Mice received saline-washed erythrocytes from donor mice throughout the experimental period (5-6 μl·min-1) to prevent a fall of ≧5% hematocrit. HGP and Rd were determined using Mari's non-steady-state equations for a two-compartmental model^28.
# Snap frozen gastrocnemius muscle and liver from mice were pulverized in liquid nitrogen then lysed overnight at 4° C. in the lysis buffer described for the C2C12 myotube experiments. Immunoblotting of myotube, macrophage, liver and muscle lysates was then performed as previously described^5. Briefly, 50 ug of protein was loaded onto a 7.5% acrylamide gel, subjected to SDS-PAGE then transferred onto nitrocellulose membranes. Membranes were then blocked and probed with the appropriate antibodies. Antibodies for p-Akt ser473, p-JNK thr183/tyr185, JNK, p-AMPK thr172, AMPK, p-STAT-3 ser727 and STAT-3 were obtained from Cell Signaling Technology (MA, USA). Antibodies for total Akt and iNOS were from Santa Cruz Biotechnology (CA, USA) and BD Transduction Laboratories™ (Canada) respectively.
# RNA was extracted from C2C12 myotubes using an RNeasy® mini kit from QIAGEN. RNA from homogenized liver tissue was extracted using an RNeasy® fibrous tissue mini kit from QIAGEN. RNA was then reverse transcribed to cDNA using the high-capacity cDNA reverse transcription kit from applied biosystems. Real-time PCR for Ppargc1, Pck1, G6Pc, and GAPDH was then performed using Taqman assay on demand probes and primers from Applied Biosystems in a CFX96 real-time system from BIO-RAD. The relative expression of genes of interest was then determined by normalization to the housekeeping gene GAPDH using the comparative CT method for relative gene expression^30.
# Chemokines and cytokines were quantified in macrophage media, or mouse plasma using the MILLIPLEX™ MAP mouse cytokine/chemokine kit (Millipore Corporation, MA, USA). Nitrite accumulation in media was determined by Greiss assay as previously described^25. […]
# J77A4 macrophages = assay: IL-6 release from cultured macrophages in the absence of palmitate stimulation; format: cell-based, murine
# Source text: (a-b) Skeletal muscle and liver IL-6 protein expression. (c) Total plasma adiponectin. (d) Immunoblots for pAMPK thr172 and total AMPK in skeletal muscle. (e) Immunoblots for pSTAT-3 ser727 and total STAT-3 in liver. Quantification of densitometry analyses for immunoblots are shown below the representative gels. In each case lanes were run on the same gel but were noncontiguous. (f-h) Relative mRNA expression for Ppargc1, Pck1 and G6Pc in liver. All genes were normalized to GAPDH using the delta delta CT method. All data are mean±SEM, n=6, *P<0.05, **P<0.01 vs Saline; ^†P<0.05, ^††P<0.01vs Lipid. (i) IL-6 in media of C2C12 myotubes exposed to PDX for 2 h. (j) IL-6 mRNA expression in C2C12 myotubes exposed to PDX for 2 h. (k) Immunoblots for pAMPK thr172 and total AMPK in C2C12 myotubes exposed to PDX for 2 h. Quantification of densitometry analyses for immunoblots are shown below the representative gels. Lanes were run on the same gel but were noncontiguous. Data are mean±SEM of three independent experiments. *P<0.05, **P<0.01 vs vehicle. (I) IL-6 in media of C2C12 myotubes exposed to Veh, or 100 nM of PDX, PD1, 8(S),15(s)-DiHETE, or RvD1. Data are mean±SEM of three independent experiments. **P<0.01 vs vehicle. (m) IL-6 in media of J77A4 macrophages treated with Veh, LPS, or PDX (10, 100, or 1000 nM) for 30 min, 2 h and 8 h. (n) Immunoblots for pAMPK thr172 and total AMPK in C2C12 myotubes exposed to PDX for 2h. Quantification of densitometry analyses for immunoblots are shown below the representative gels. Data are mean±SEM of three independent experiments. **P<0.01 vs vehicle.
# In order to address the dichotomy in PDX's effect on IL-6 release from muscle versus macrophages, we next examined the impact of PDX on IL-6 release from cultured macrophages in the absence of palmitate stimulation (FIG. 5m). […] Since activation of AMPK represses inflammatory cytokine production in macrophages^19 this may explain the opposing effect of PDX on IL-6 expression and release in skeletal myotubes and activated macrophages.
smiles,measurement,setting,value
"CC/C=C\C[C@H](O)/C=C/C=C\C=C\[C@@H](O)C/C=C\C/C=C\CCC(=O)O [PDX, 10S,17S-dihydroxy-docosa-4Z,7Z,11E,13Z,15E,19Z-hexaeonic acid]",phosphorylation of AMPK on Thr172 in muscle,lean C57BL/6J mice; P<0.05,robust phosphorylation
same,phosphorylation of hepatic STAT-3 on Ser727,lean C57BL/6J mice; P<0.05,enhancing
same,pre-clamp glycemia,"lean C57BL/6J mice; PDX 1 ug i.v. immediately prior to and 2.5 h into 6 h lipid infusion, vs saline and lipid-treated animals, P<0.01",significant lowering
same,peripheral insulin action,"lean C57BL/6J mice; PDX 1 ug i.v. x2, lipid-infused",partial restoration
same,"lipid-induced decline in whole-body insulin sensitivity (glucose infusion rate, GIR)","lean C57BL/6J mice; PDX 1 ug i.v. x2, lipid-infused, P<0.001",completely prevented the lipid-induced decline
same,hepatic insulin action,"lean C57BL/6J mice; PDX 1 ug i.v. x2, lipid-infused, significantly greater than saline-infused mice, P<0.05",markedly increased
same,adiponectin in plasma,lean C57BL/6J mice; both lipid-infused groups (with and without PDX),similarly reduced levels
same,IL-6 protein expression in skeletal muscle,lean C57BL/6J mice; expression profile compared with plasma IL-6,closely resembled that of plasma
same,phosphorylation of Akt on Ser473,"lean C57BL/6J mice; liver and skeletal muscle, immunoblot",confirmed the improved insulin action
same,JNK activation (phosphorylation on Thr183/Tyr185),"lean C57BL/6J mice; liver, immunoblot",prevents
same,liver IL-6 levels,"lean C57BL/6J mice; mouse, in vivo",no significant effect
same,suppression of PGC-1α and PEPCK in liver (mRNA),"lean C57BL/6J mice; mouse, in vivo",enhancing
same,lipid-mediated induction of iNOS,"lean C57BL/6J mice; muscle and liver, immunoblot",represses
same,"lipid-induced secretion of cytokines TNFα, IFNγ, IL-1β, IL-2 and IL-17","lean C57BL/6J mice; plasma, lipid-infused",strongly suppresses
same,lipid-induced secretion of proinflammatory chemokines CCL2/MCP-1 and CCL5/RANTES,"lean C57BL/6J mice; plasma, lipid-infused",strongly suppresses
same,increase in IL-6 beyond that induced by lipid infusion alone,"lean C57BL/6J mice; plasma, P<0.001",~7 fold
same,suppression of G6Pase in liver (mRNA),"lean C57BL/6J mice; tendency, P=0.08",did not reach significance
same,AMPK phosphorylation,J77A4 macrophages; P<0.01,promote AMPK phosphorylation
same,IL-6 mRNA expression,J77A4 macrophages; no palmitate,does not stimulate
same,IL-6 release,"J77A4 macrophages; no palmitate, PDX 10, 100, or 1000 nM for 30 min, 2 h and 8 h",does not stimulate
